Row | SMILES | melting point [°C]
1 | COc1cc2c(cc1OC)-c1c(-c3nc(C)no3)c(-c3cc(C)c(O)c(C)c3)c(C)n1CC2 [Example 5, 4-[8,9-Dimethoxy-3-methyl-1-(3-methyl-[1,2,4]oxadiazol-5-yl)-5,6-dihydro-pyrrolo[2,1-a]isoquinolin-2-yl]-2,6-dimethyl-phenol] | 218 to 221
2 | COc1cc2c(cc1OC)-c1c(-c3nc(C4CC4)no3)c(-c3cc(C)c(O)c(C)c3)c(C)n1C(C)C2 (stereo not drawn) [Example 2, (5RS)-4-[1-(3-Cyclopropyl-[1,2,4]oxadiazol-5-yl)-8,9-dmethoxy-3,5-dimethyl-5,6-dihydro-pyrrolo[2,1-a]isoquinolin-2-yl]-2,6-dimethyl-phenol] | 174 to 175
3 | COc1cc2c(cc1OC)-c1c(-c3ncc(C)o3)c(-c3cc(C)c(O)c(C)c3)c(C)n1CC2 [Example 6, 4-[8,9-Dimethoxy-3-methyl-1-(5-methyl-oxazol-2-yl)-5,6-dihydro-pyrrolo[2,1-a]isoquinolin-2-yl]-2,6-dimethyl-phenol] | 222 to 224

Second part, the compound after the results:

Row | melting point [°C] | SMILES
4 | 191 to 193 | COc1cc2c(cc1OC)-c1c(-c3nc(-c4ccccc4)no3)c(-c3cc(C)c(O)c(C)c3)c(C)n1CC2 [Example 4, 4-[8,9-Dimethoxy-3-methyl-1-(3-phenyl-[1,2,4]oxadiazol-5-yl)-5,6-dihydro-pyrrolo[2,1-a]isoquinolin-2-yl]-2,6-dimethyl-phenol]
5 | 203 to 206 | COc1cc2c(cc1OC)-c1c(-c3nc(-c4ccccc4)no3)c(-c3cc(C)c(O)c(C)c3)c(C)n1C(C)C2 (racemic) [Example 3, (5RS)-4-[8,9-Dimethoxy-3,5-dimethyl-1-(3-phenyl-[1,2,4]oxadiazol-5-yl)-5,6-dihydro-pyrrolo[2,1-a]isoquinolin-2-yl]-2,6-dimethyl-phenol]
6 | 182 to 184 | COc1cc2c(cc1OC)-c1c(-c3nc(C)no3)c(-c3cc(C)c(O)c(C)c3)c(C)n1C(C)C2 (racemic) [Example 1, (5RS)-4-[8,9-Dimethoxy-3,5-dimethyl-1-(3-methyl-[1,2,4]oxadiazol-5-yl)-5,6-dihydro-pyrrolo[2,1-a]isoquinolin-2-yl]-2,6-dimethyl-phenol]
